The values that follow come from the Deep4Chem optical property database.

The series is described as follows: photoluminescence quantum yield (fraction); solvent given as SMILES.

In the case of `Cc1ccccc1-c1cc(-c2ccc(N3c4ccccc4C(C)(C)c4ccccc43)cc2)nc(-c2ccccc2)n1`, the photoluminescence quantum yield is, setting by setting: (in CC#N) 0.101; (in Cc1ccccc1) 0.777; (in ClCCl) 0.884.
With `Cc1c(COC(=O)c2ccc(I)cc2)n2c(OCC(=O)c3ccc(I)cc3)c(C)c(=O)n2c1=O`, the photoluminescence quantum yield (in CCO) was determined as 0.842.
As for `Cc1ccc(C2=C3C=CC(C#Cc4ccccc4)=[N+]3[B-](F)(F)n3c(C#Cc4ccccc4)ccc32)cc1`, the photoluminescence quantum yield was determined as 1 (in C1CCCCC1); 0.99 (in C1CCOC1); 1 (in C1COCCO1); 1 (in CCOC(C)=O); 1 (in CO); 1 (in Cc1ccccc1). Further, the photoluminescence quantum yield is 1 (in ClC(Cl)Cl) and 1 (in ClCCl).
As to `COc1ccc2c3c(c4ccc(OC)cc4c2c1)=[N+]1C(=C(c2c(C)cc(C)cc2C)c2cc4c5ccc(OC)cc5c5cc(OC)ccc5c4n2[B-]1(F)F)C=3`, the photoluminescence quantum yield runs as follows: (in C1CCCCC1) 0.63; (in C1CCOC1) 0.5; (in CC#N) 0.33; (in Cc1ccccc1) 0.54; (in ClCCl) 0.53.
`CC(C)c1cccc(C(C)C)c1N1C(=O)c2ccc3c(-c4ccc(C(=O)O)cc4)c4c5ccc6c7c(ccc(c(-c8ccc(C(=O)O)cc8)c4c4ccc(c2c34)C1=O)c75)C(=O)N(c1c(C(C)C)cccc1C(C)C)C6=O` displayed a photoluminescence quantum yield (in ClCCl) of 0.3.
As for `CCN(CC)c1ccc2c(-c3ccc(S(=O)(=O)O)cc3S(=O)(=O)[O-])c3ccc(=[N+](CC)CC)cc-3oc2c1`, the photoluminescence quantum yield by setting is: (in CC#N) 0.58; (in CCO) 0.66; (in CN(C)C=O) 0.54; (in O) 0.36.
As for `CC(C)(C)c1ccc2c(c1)c1cc(C(C)(C)C)ccc1n2-c1ccc(C#Cc2ccc(C#Cc3ccc(-n4c5ccc(C(C)(C)C)cc5c5cc(C(C)(C)C)ccc54)cc3)cc2)cc1`, the photoluminescence quantum yield is, setting by setting: (in CC#N) 0.67; (in CCCCC) 0.89; (in CO) 0.41; (in Cc1ccccc1) 0.86; (in ClC(Cl)Cl) 0.69; (in ClCCl) 0.89.
Take `C(=C\c1cc(/C=C/c2ccc(N(c3ccccc3)c3ccccc3)cc2)ncn1)/c1ccc(N(c2ccccc2)c2ccccc2)cc1`: for the setting “in ClCCl”, the photoluminescence quantum yield was found to be 0.55.
As to `O=C1/C(=C2\Nc3cc4ccc5cccc6ccc(c3C2=O)c4c56)Nc2cc3ccc4cccc5ccc(c21)c3c45`, the photoluminescence quantum yield (in C1CCOC1) turned out to be 0.0076.
`CN1/C(=C/C=C(/C=C/c2sc3ccccc3[n+]2C)c2cc(F)cc(F)c2)Sc2ccccc21` yielded a photoluminescence quantum yield (in CCO) of 0.1, a photoluminescence quantum yield (in CO) of 0.08 and a photoluminescence quantum yield (in CS(C)=O) of 0.18.
In the case of `CC1=C(c2ccc(N(c3ccccc3)c3ccccc3)cc2)C(C)=[N+]2C1=C(c1c(-c3ccccn3)nc3ccccn13)c1c(C)cc(C)n1[B-]2(F)F`, the photoluminescence quantum yield (in ClCCl) was found to be 0.0038.
`COc1nnc(Cl)nn1`: the photoluminescence quantum yield was 0.38 (in ClCCl) and 0.26 (in OCC(F)(F)F).
On to `CN(C)c1ccc(-c2nc(C#N)c(C#N)n2C)cc1`, for which the photoluminescence quantum yield runs as follows: (in C1CCCCC1) 0.85; (in CC#N) 0.02; (in CO) 0.003; (in ClC(Cl)Cl) 0.73.
Turning to `F[B-]1(F)OC(c2ccccc2)=Cc2cc3[n+](c[n+]21)[B-](F)(F)OC(c1ccccc1)=C3`, where the note is “in ClCCl”, the photoluminescence quantum yield worked out at 0.55.
Same read-out and setting: for `Cc1ccc(-c2ccc(C(=O)NC(C)(C)C)c3c2ccc2c4ccccc4c4ccccc4c23)cc1` the value was 0.07.
As to `c1ccc(N(c2ccccc2)c2ccc(-c3ccc4c(c3)C3(c5cc(-c6ccc(N(c7ccccc7)c7ccccc7)cc6)ccc5O4)c4ccccc4-c4ccccc43)cc2)cc1`, the photoluminescence quantum yield runs as follows: (in ClCCl) 0.47; (in c1cc(-n2c3ccccc3c3ccccc32)cc(-n2c3ccccc3c3ccccc32)c1) 0.45.
As for `CCCCCCOc1ccc(N(c2ccc(OCCCCCC)cc2)c2ccc(-c3sc(-c4ccc(N(c5ccc(OCCCCCC)cc5)c5ccc(OCCCCCC)cc5)cc4)c4nc(CC)c(CC)nc34)cc2)cc1`, the photoluminescence quantum yield (in CN(C)C=O) was determined as 0.0205 and the photoluminescence quantum yield (in ClC(Cl)Cl) worked out at 0.0225.
Turning to `COc1ccc(C(=Cc2ccc(/C=C/c3ccc(C#N)cc3)cc2)c2ccc(OC)cc2)cc1`, the photoluminescence quantum yield (in C1CCOC1) is 0.03.
Regarding `COC(=O)C1=C(C(=O)OC)C2(c3ccccc3-c3c(C(=O)OC)cccc32)[C@@H](c2ccc(Cl)cc2)C=C2c3cc(OC)c(OC)cc3CCN21` (some centres not stated), the photoluminescence quantum yield (in ClCCl) was determined as 0.00593.
Compound `CCCCN(CCCC)c1ccc2c#cc3cc4c#cc5ccc(C(F)(F)F)cc5c#cc#cc5cc(N(CCCC)CCCC)ccc5c#cc4cc3c#cc3ccc(C(F)(F)F)cc3c#cc#cc2c1` gave a photoluminescence quantum yield (in ClCCl) of 0.33.
The same measure, in the same setting: then `O=c1oc2ccccc2c2c1c(=O)oc1cc(O)cc(O)c12`, with 0.1.
As for `CC(C)Nc1cc2c(cc1F)c(=O)c1cc(F)c(NC(C)C)cc1n2C`, under “in CCO”, the photoluminescence quantum yield stood at 0.31.
For the compound `COc1cc(/C=C2/SC(=O)NC2=O)ccc1O`, the photoluminescence quantum yield runs as follows: (in C1CCCCC1) 0.018; (in C1COCCO1) 0.017; (in CC#N) 0.01; (in CN(C)C=O) 0.023; (in CO) 0.012; (in O) 0.011. In addition, the photoluminescence quantum yield runs as follows: (in OCC(O)CO) 0.35; (in OCCO) 0.104.
Turning to `CCC1=C(C)C2=Cc3c4ccccc4c4n3[B-](c3cc[n+](C)cc3)(Oc3ccccc3-4)[N+]2=C1C=Cc1ccc(OC)cc1` (configuration not stated), the photoluminescence quantum yield is 0.21 (in CO) and 0.26 (in CS(C)=O).
Regarding `CCOC(=O)c1ccc2c(c1)[nH]c1c3ccc(C(=O)OCC)cc3sc21`, for the setting “in CCCO”, the photoluminescence quantum yield is 0.45.
Turning to `O=C(c1ccc2c3c(sc2c1)-c1ccccc1P3(=O)c1ccccc1)c1c(F)c(F)c(F)c(F)c1F` (configuration not stated), where the note is “in ClCCl”, the photoluminescence quantum yield stood at 0.29.
With `CC1=N/C(=C\c2ccc(C#N)c(N(C)C)c2)C(=O)N1C`, the photoluminescence quantum yield stood at 0.07 (in C1CCOC1), 0.02 (in CC#N) and 0.41 (in CCCCCC).
As to `COc1cc(OC)cc(C2=C3C(C)=C(I)C(/C=C/c4ccsc4)=[N+]3[B-](F)(F)n3c(/C=C/c4ccsc4)c(I)c(C)c32)c1`, the photoluminescence quantum yield reads like this: (in C1CCOC1) 0.01; (in CS(C)=O) 0.01; (in ClCCl) 0.02.
As to `O=C1c2ccc3c4c(Oc5ccccc5)cc5c6c(ccc(c7c(Oc8ccccc8)cc(c2c37)C(=O)N1c1ccc(O)cc1)c64)C(=O)N(c1ccc(O)cc1)C5=O`, the photoluminescence quantum yield reads like this: (in C1CCOC1) 0.3; (in CN1CCCC1=O) 0.2; (in CN(C)C=O) 0.01.
`CC(C)(C)c1ccc2c(c1)c1cc(C(C)(C)C)ccc1n2-c1ccc(S(=O)(=O)c2ccc(-n3c4ccc(C(C)(C)C)cc4c4cc(C(C)(C)C)ccc43)cc2)cc1`: where the note is “in Cc1ccccc1”, the photoluminescence quantum yield was found to be 0.69.
For `CC(C)[Si](C#Cc1c2cc3ccccc3cc2c(C#C[Si](C(C)C)(C(C)C)C(C)C)c2cc3ccccc3cc12)(C(C)C)C(C)C`, the photoluminescence quantum yield (in ClCCl) came to 0.15.
Still for that read-out and setting: for `CCOC(=O)COc1ccc(/C=C/C2=[N+]3C(=Cc4c5ccccc5c(-c5[nH]c(C)cc5C)n4[B-]3(F)F)C(C)=C2)cc1` the value was 0.75.
Under “in CC#N”, `Cc1ccc(-c2ccc(/C=C/c3cccs3)cn2)nc1` had a photoluminescence quantum yield of 0.042.
In the case of `CC1(C)c2ccccc2-c2ccc(N3c4ccc(-c5ccc(/C=C6\C(=O)c7ccc(C(=O)O)cc7C6=O)s5)cc4C4CCCC43)cc21` (configuration not stated), the photoluminescence quantum yield (in ClC(Cl)Cl) is 0.18.
The compound `Cc1cc(C)c(B(c2cc(-c3ccc(C(C)(C)C)cc3)sc2-c2sc(-c3ccc(C(C)(C)C)cc3)cc2P(=O)(c2ccccc2)c2ccccc2)c2c(C)cc(C)cc2C)c(C)c1` showed a photoluminescence quantum yield (in CO) of 0.54.
As for `CC1=CC(C)=[N+]2C1=C(c1ccc(I)cc1)c1c(C)cc(C)n1[B-]21Oc2ccc3ccccc3c2-c2c(ccc3ccccc23)O1`, the photoluminescence quantum yield (in ClC(Cl)Cl) was determined as 0.002.
For `CC1(C)C(/C=C/C2=C(Cl)C(=C/C=C3/N(Cc4ccc(C(=O)O)cc4)c4ccccc4C3(C)C)/CCC2)=[N+](Cc2ccc(C(=O)O)cc2)c2ccccc21`, under “in CCO”, the photoluminescence quantum yield worked out at 0.11.
Take `FC(F)(F)c1ccccc1B1c2ccccc2Nc2ccccc21`: the photoluminescence quantum yield (in ClCCl) stood at 0.85.
Still for that read-out and setting: for `ClP1(Cl)=N[P@@](Cl)(Oc2ccc3ccc4cccc5ccc2c3c45)=N[P@@](Cl)(Oc2ccc3ccc4cccc5ccc2c3c45)=N1` the value was 0.7.
As for `CCCCCCCCCCC1(CCCCCCCCCC)c2cc(-c3nc4ccccc4s3)ccc2-c2ccc(N3C(=O)c4ccc5c6ccc7c8c(ccc(c9ccc(c4c59)C3=O)c86)C(=O)N(c3ccc4c(c3)C(CCCCCCCCCC)(CCCCCCCCCC)c3cc(-c5nc6ccccc6s5)ccc3-4)C7=O)cc21`, the photoluminescence quantum yield is, setting by setting: (in Cc1ccccc1) 0.23; (in ClCCl) 0.0025.
With `CCCCCc1c(C)c2c3ccccc3[nH]c2c2ccccc12`, the photoluminescence quantum yield (in ClCCl) is 0.167.
Under “in ClC(Cl)Cl”, `c1ccc(-c2nc(-c3ccc(N4CCCC4)cc3)cc(-c3ccc4ccccc4c3)n2)cc1` yielded a photoluminescence quantum yield of 0.19.
In turn, `COc1c2ccccc2c(OC)c2c(C#CC(C)(C)C)c3cc4sccc4cc3c(C#CC(C)(C)C)c12` gave a photoluminescence quantum yield (in C1CCOC1) of 0.1, a photoluminescence quantum yield (in Cc1ccccc1) of 0.14 and a photoluminescence quantum yield (in ClCCl) of 0.08.
Consider `Cc1cc2nc3c(=O)[nH]c(=O)n(C)c3nc2cc1C`, for which, under “in CC#N”, the photoluminescence quantum yield came out at 0.027.
For the compound `O=c1ccc2cc3c(cc2o1)OCC3`, the photoluminescence quantum yield stood at 0.23 (in CC(C)O); 0.23 (in CCO); 0.06 (in CCOCC); 0.3 (in CO); 0.83 (in O).
As for `C[Si]1(C)C(c2ccccc2)=Cc2ccccc21`, where the note is “in ClCCl”, the photoluminescence quantum yield was 0.55.
The compound `N#CC(C#N)=Cc1ccc2c(c1)c1ccccc1n2-c1cccc2ccccc12` gave a photoluminescence quantum yield (in ClCCl) of 0.05.
